Experimental data as given in patent US12376590B2, “Compositions comprising pyridine carboxylate herbicides and azole carboxylate safeners” (Corteva Agriscience LLC, priority 2018, dated 2025).

Columns and labels:
Test in all cases: Greenhouse postemergence herbicidal safening trial, visual injury after 20-22 d
Details in all cases: applied alone
[1] = system: velvetleaf (ABUTH); format: in vivo, Abutilon theophrasti
Excerpt: (§1) Greenhouse Trial Methodology—Evaluation of Postemergence Herbicidal Safening in Crops
(§2) Seeds of the desired test plant species were planted in a 90:10% v/v (volume/volume) mixture of PRO-MIX® BX (Premier Tech Horticulture, Quakertown, PA, USA) and PROFILE® GREENS GRADE™ (Profile Products LLC, Buffalo Grove, IL, USA) planting mixture, which typically has a pH of 5.2 to 6.2 and an organic matter content of at least 50 percent, in plastic pots with a surface area of 103.2 square centimeters (cm^2). When required to ensure good germination and healthy plants, a fungicide treatment and/or other chemical or physical treatment was applied. The plants were grown for 7-36 days (d) in a greenhouse with an approximate 14-hour (h) photo-period which was maintained at about 23° C. during the day and 22° C. during the night. Nutrients and water were added on a regular basis and supplemental lighting was provided with overhead metal halide 1000-Watt lamps as necessary. The plants were employed for testing when they reached the second or third true leaf stage.
(§3) Emulsifiable concentrates of each of each pyridine carboxylate herbicide (Compound A or Compound B) were prepared at 100 grams acid equivalent per liter (g ae/L). An aliquot of each emulsifiable concentrate was placed in a 25 mL glass vial and diluted with an aqueous mixture of 1.25% (v/v) ACTIROB® B esterified rapeseed oil (Bayer Crop Science, Research Triangle Park, NC, USA) or MSO® Concentrate with LECI-TECH® methylated soybean oil (Loveland Products, Loveland, CO, USA) to obtain concentrated stock solutions at the highest application rate for each herbicide, based upon a 12 milliliter (mL) application volume at a rate of 187 liters per hectare (L/ha). The concentrated stock solutions were further diluted with an aqueous mixture of 1.25% v/v ACTIROB® B or MSO® Concentrate with LECI-TECH® to obtain stock solutions at reduced application rates for each herbicide. Spray solutions of the herbicide combinations (Compound A or Compound B plus safener) were prepared by adding weighed amounts or aliquots of the azole carboxylate safener to the stock solutions of Compound A or Compound B to form 12-mL spray solutions in two-way combinations.
(§4) The spray solutions were applied to the plant material with an overhead Mandel track sprayer equipped with 8002E nozzles calibrated to deliver 187 L/ha over an application area of 0.503 square meters (m^2) at a spray height of 18 inches (43 centimeters (cm)) above the average plant canopy. Control plants were sprayed in the same manner with the solvent blank. All herbicide (component a) application rates are given as “g ae/ha” and all safener (component b) application rates are given as “g ai/ha.”
(§5) The treated plants and control plants were placed in a greenhouse as described above and watered by sub-irrigation to prevent wash-off of the test compounds. After 20-22 d, the condition of the test plants as compared with that of the control plants was determined visually and scored on a scale of 0 to 100 percent where 0 corresponds to no injury and 100 corresponds to complete kill.

[2] = system: winter wheat (TRZAW); format: in vivo, Triticum aestivum
Excerpt: as §1, §2, §3, §4, §5

[3] = system: wild pansy (VIOTR); format: in vivo, Viola tricolor
Excerpt: as §1, §2, §3, §4, §5

[4] = system: common rice (ORYSA); format: in vivo, Oryza sativa
Excerpt: as §1, §2, §3, §4, §5

[5] = system: common sunflower (HELAN); format: in vivo, Helianthus annuus
Excerpt: as §1, §2, §3, §4, §5

[6] = system: nutsedge (CYPES); format: in vivo, Cyperus esculentus
Excerpt: as §1, §2, §3, §4, §5

[7] = system: common lambsquarters (CHEAL); format: in vivo, Chenopodium album L.
Excerpt: as §1, §2, §3, §4, §5

[8] = system: wild buckwheat (POLCO); format: in vivo, Polygonum convolvulus
Excerpt: as §1, §2, §3, §4, §5

[9] = system: kochia (KCHSC); format: in vivo, Kochia scoparia
Excerpt: as §1, §2, §3, §4, §5

[10] = system: herbicide-resistant kochia (KCHSC-R); format: in vivo, Kochia scoparia
Excerpt: as §1, §2, §3, §4, §5

[11] = system: ivyleaf morningglory (IPOHE); format: in vivo, Ipomoea hederacea
Excerpt: as §1, §2, §3, §4, §5

[12] = system: maize (ZEAMX); format: in vivo, Zea mays
Excerpt: as §1, §2, §3, §4, §5

[13] = system: blackgrass (ALOMY); format: in vivo, Alopecurus myosuroides
Excerpt: as §1, §2, §3, §4, §5

[14] = system: Italian ryegrass (LOLMU); format: in vivo, Lolium multiflorum
Excerpt: as §1, §2, §3, §4, §5

[15] = system: giant foxtail (SETFA); format: in vivo, Setaria faberi
Excerpt: as §1, §2, §3, §4, §5

[16] = system: wild oat (AVEFA); format: in vivo, Avena fatua
Excerpt: as §1, §2, §3, §4, §5

[17] = system: Canada horseweed (ERICA); format: in vivo, Erigeron canadensis
Excerpt: as §1, §2, §3, §4, §5

[18] = system: soybean (GLXMA); format: in vivo, Glycine max
Excerpt: as §1, §2, §3, §4, §5

[19] = system: pigweed (AMARE); format: in vivo, Amaranthus retroflexus
Excerpt: as §1, §2, §3, §4, §5

[20] = system: large crabgrass (DIGSA); format: in vivo, Digitaria sanguinalis
Excerpt: as §1, §2, §3, §4, §5

[21] = system: Johnson grass (SORHA); format: in vivo, Sorghum halepense
Excerpt: as §1, §2, §3, §4, §5

[22] = system: Chinese sprangletop (LEFCH); format: in vivo, Leptochloa chinensis
Excerpt: as §1, §2, §3, §4, §5

[23] = system: barnyardgrass (ECHCG); format: in vivo, Echinochloa crus-galli
Excerpt: as §1, §2, §3, §4, §5

[24] = system: Canada thistle (CIRAR); format: in vivo, Cirsium arvense
Excerpt: as §1, §2, §3, §4, §5

[25] = system: winter rape (BRSNW); format: in vivo, Brassica napus
Excerpt: as §1, §2, §3, §4, §5

[26] = system: spring wheat (TRZAS); format: in vivo, Triticum aestivum
Excerpt: as §1, §2, §3, §4, §5

[27] = system: Russian thistle (SASKR); format: in vivo, Salsola kali
Excerpt: as §1, §2, §3, §4, §5

[28] = system: wild chamomile (MATCH); format: in vivo, Matricaria chamomilla
Excerpt: as §1, §2, §3, §4, §5

[29] = system: spring barley (HORVS); format: in vivo, Hordeum vulgare
Excerpt: as §1, §2, §3, §4, §5

Measured: % visual injury Ob

O=C(O)c1nc(C(Cl)(Cl)Cl)n(-c2ccc(Cl)cc2Cl)n1 [Fenchlorazole, fenchlorazole]
0%: [1]; 20 g/ha | [1]; 40 g/ha | [1]; 80 g/ha | [2]; 20 g/ha | [2]; 40 g/ha | [2]; 80 g/ha | [3]; 20 g/ha | [3]; 40 g/ha | [3]; 80 g/ha | [4]; 20 g/ha | [4]; 40 g/ha | [4]; 80 g/ha | [5]; 20 g/ha | [5]; 40 g/ha | [5]; 80 g/ha | [6]; 20 g/ha | [6]; 40 g/ha | [6]; 80 g/ha | [7]; 20 g/ha | [7]; 40 g/ha | [7]; 80 g/ha | [8]; 20 g/ha | [8]; 40 g/ha | [8]; 80 g/ha | [9]; 20 g/ha | [9]; 40 g/ha | [9]; 80 g/ha | [10]; 20 g/ha | [10]; 40 g/ha | [10]; 80 g/ha | [11]; 20 g/ha | [11]; 40 g/ha | [11]; 80 g/ha | [12]; 20 g/ha | [12]; 40 g/ha | [12]; 80 g/ha | [13]; 20 g/ha | [13]; 40 g/ha | [13]; 80 g/ha | [14]; 20 g/ha | [14]; 40 g/ha | [14]; 80 g/ha | [15]; 20 g/ha | [15]; 40 g/ha | [15]; 80 g/ha | [16]; 20 g/ha | [16]; 40 g/ha | [16]; 80 g/ha | [17]; 20 g/ha | [17]; 40 g/ha | [17]; 80 g/ha | [18]; 20 g/ha | [18]; 40 g/ha | [18]; 80 g/ha | [19]; 20 g/ha | [19]; 40 g/ha | [19]; 80 g/ha | [20]; 20 g/ha | [20]; 40 g/ha | [20]; 80 g/ha | [21]; 20 g/ha | [21]; 40 g/ha | [21]; 80 g/ha | [22]; 20 g/ha | [22]; 40 g/ha | [22]; 80 g/ha | [23]; 20 g/ha | [23]; 40 g/ha | [23]; 80 g/ha | [24]; 20 g/ha | [24]; 40 g/ha | [24]; 80 g/ha | [25]; 20 g/ha | [25]; 40 g/ha | [25]; 80 g/ha

CCOC(=O)c1nc(C(Cl)(Cl)Cl)n(-c2ccc(Cl)cc2Cl)n1 [Fenchlorazole-ethyl, fenchlorazole-ethyl]
0%: [26]; 10 g/ha | [26]; 20 g/ha | [26]; 40 g/ha | [27]; 10 g/ha | [27]; 20 g/ha | [27]; 40 g/ha | [28]; 10 g/ha | [28]; 20 g/ha | [28]; 40 g/ha | [29]; 10 g/ha | [29]; 20 g/ha | [29]; 40 g/ha | [25]; 10 g/ha | [25]; 20 g/ha | [25]; 40 g/ha
